The source of these data is US20060264367A1, “Prevention of fibrosis following cardiac injury” (Howard Florey Institute, priority 2005, published 2006).

Common to all, as to assay type: cell-based, rat
In assay [1] the test system is atrial and ventricular fibroblasts. The assay can be described thus: Cardiac fibroblast proliferation (cell counts and [3H]-thymidine incorporation). The settings on record: for increase in fibroblast proliferation: 3 days; for increase in atrial and ventricular fibroblast proliferation: 72 h. The protocol: The ability of rhRLX to modulate cardiac fibroblast proliferation was investigated in the absence or presence of Ang II and IGF-I, which both potently stimulate fibroblast proliferation. Cardiac fibroblasts were plated at an equal density of 10^4 cells/96-well plate in DMEM-FBS. Twenty-four hours later, media were changed to DMEM supplemented with lactalbumin hydrolysate, and cells were labelled with [^3H]-thymidine (3 μCi/ml) in the presence of rhRLX (100 ng/ml) alone or in combination with IGF-I (0.1 μg/ml, 0.5 μg/ml, and 1 μg/ml) or Ang II (10^−8 M and 10^−7 M) for 72 hours. [^3H]-thymidine incorporation and cell counts, using a hemocytometer, were evaluated.
On the technique in general: Incorporation of labelled thymidine or its analogues reports DNA synthesis.

For assay [2] the test system is unchanged. The assay can be described thus: Collagen secretion into media by cardiac fibroblasts ([3H]-proline labelling). The note with it: 72 h. The procedure:
(§1) Distribution of relaxin and LGR7 expression was determined in atrial myocytes and fibroblasts, ventricular myocytes and fibroblasts, and vascular smooth muscle cells (VSMC). These cells were obtained from neonate rats using standard collagenase digestion methods. Neonate (1 day old) Sprague Dawley rats were used for tissue collection and subsequent cardiac cell isolation and preparation. The cells were maintained in DMEM supplemented with 10% fetal calf serum, penicillin (50 U/ml), and streptomycin (50 μg/ml) (DMEM-FBS). Cardiac fibroblast isolation from myocytes and subsequent preparation were performed as described previously (Gray M O et al. (1998) Cardiovasc Res 40:352-363). These preparations contained more than 95% cardiac fibroblasts as determined by morphological appearance and immunocytochemical staining. Fibroblasts were used between passages 2 and 4 for all studies.
Atrial and ventricular fibroblasts were subjected to TGF-β or Ang II in the absence or presence of rhRLX over 3 days. For the TGF-β studies, cells were treated for 72 hours with rhRLX (100 ng/ml), TGF-β (1 or 2 ng/ml), or a combination of rhRLX (100 ng/ml) and TGF-β (2 ng/ml) in serum-free DMEM supplemented with lactalbumin hydrolysate. For the Ang II studies, fibroblasts were treated with Ang II (1×10^−7 M and 5×10^−7 M) or a combination of rhRLX (100 ng/ml) and Ang II (1 or 5×10^−7 M). TGF-B3 (1 ng/ml) alone induced an 85-95% increase in secretion of interstitial (types I and III) collagen into the cultured media.
For measurement of collagen synthesis, collagen was biosynthetically labelled with [^3H]-proline in the presence of ascorbate and β-aminopropionitrile, as previously described (Unemori et al, supra). For measurement of collagen deposition into the cell matrix, cell layers (per well) were isolated and hydrolyzed with 6 M hydrochloric acid for measurement of hydroxyproline content, as described previously (Samuel C S et al. (1996) Endocrinology 137:3884-3890; Gallop P M, Paz M A (1975) Physiol Rev 55:418487). […]

Assay [3] shares this test system. The assay can be described thus: Collagen deposition into the cell matrix (hydroxyproline content of cell layers). The note with it: stimulus alone, 72 h. The protocol: as §1
Fibroblasts were also plated at 5/mm^2 and grown for 7 days in the absence or presence of rhRLX (100 ng/ml). […]
Collagen content of cell layers from untreated fibroblasts and cells treated with rhRLX (100 ng/ml) alone, TGF-β (2 ng/ml) alone, or TGF-β (2 ng/ml) and rhRLX (100 ng/ml) was measured after 72 hours of culture. The collagen content of cell layers from untreated atrial fibroblasts and cells treated with Ang II (10^−7 M) alone or Ang II (10^−7 M) and rhRLX (100 ng/ml) was measured after 72 hours of culture. […]

Assay [4] has as its system MMP-2. Briefly: Gelatin zymography of conditioned media, MMP-2 expression. The settings on record: TGF-β 2 ng/ml alone, 72 h. The protocol: The effects of rhRLX on MMP expression, were determined using gelatin zymography of conditioned media, performed as previously described (Talhouk R S et al. (1991) 112:439-449). Briefly, the neonatal cardiac cells (1×10^5/cm^2) were treated with either TGF-β (2 ng/ml) or Ang II (10^−7 M) in the absence or presence of rhRLX (100 ng/ml) for 72 h; the final 24 hours of treatment were under serum-free conditions. Equal aliquots of the collected media were then analyzed on zymogram gels consisting of 7.5% acrylamide and 1 mg/ml gelatin, and the gels were subsequently treated as previously detailed (Talhouk R S, supra).

Assay [5] deals with α-SMA. The assay can be described thus: Fibroblast differentiation to myofibroblasts, Western blot of α-SMA. The settings on record: TGF-β 2 ng/ml or Ang II 10^−7 M alone, 72 h, ventricular fibroblasts. From the text:
In the normal heart, cardiac fibroblasts are relatively quiescent, but upon pathological stimuli to the heart they proliferate and differentiate into activated myofibroblasts. These myofibroblasts, the hallmarks of which are α-SMA expression and production of prodigious amounts of collagen, are important contributors to fibrosis and the pathology of the heart (Eghbali M (1998) Basic Res Cardiol 87(Suppl 2):183-189; Bouzegrhane F, Thibault G (2002) Cardiovasc Res 53:304-312). Ventricular fibroblast differentiation to myofibroblasts was analyzed by measuring α-SMA expression by ventricular fibroblasts. In all experiments, an equal amount of total protein (10 μg/sample) was analyzed. α-SMA was sized at 43 kDa under nonreducing conditions when detected with a monoclonal antibody. In some experiments, cells were either untreated or treated with TGF-β (2 ng/ml) alone or TGF-β (2 ng/ml) and rhRLX (100 ng/ml) for 72 hours. In other experiments, cells were either untreated or treated with Ang II (10^−7 M) alone or Ang II (10^−7 M) and rhRLX (100 ng/ml) for 72 hours.
Fibroblast differentiation into myofibroblasts was determined by α-SMA expression. […] Cell layers were trypsinized, and the protein was extracted using Trizol reagent (according to the manufacturer's instructions; Life Technologies, Gaithersburg, Md.) and analyzed by the Bio-Rad dye-binding protein assay (Bio-Rad, Richmond, Calif.). […]

Turning to “IGF-I: growth factor that potently stimulates fibroblast proliferation”, the “increase in fibroblast proliferation” value in assay [1] (IGF-I 0.1 μg/ml) was 27-30%; in assay [1] (IGF-I 0.5 μg/ml), 36-40%; in assay [1] (IGF-I 1.0 μg/ml), 34-40%.
As for TGF-β, the “increase in secretion of interstitial (types I and III) collagen into the cultured media” value in assay [2] (1 ng/ml alone) is given as 85-95%. The “up-regulation of collagen deposition into the matrix of fibroblasts” value in assay [3] is 65-85%. Further, the MMP-2 expression entry in assay [4] was “modest increase”. Moreover, the “increase in α-SMA expression” value in assay [5] is on record as 85-95%.
In the case of “angiotensin II (DRVYIHPF; Angiotensin-2; UniProt P01019 25-32, looked up) [Ang II, angiotensin II, profibrotic stimulus obtained from Sigma-Aldrich]”, the results for the “increase in collagen secretion” value in assay [2] (Ang II 1×10^−7 M alone) and in assay [2] (Ang II 5×10^−7 M alone) were 50-60% and 15-20%, respectively. Besides, the “up-regulation of collagen deposition into the matrix of fibroblasts” value in assay [3] is recorded as 20-50%. For the same substance, the “increase in atrial and ventricular fibroblast proliferation” value in assay [1] (Ang II 10^−7 M) is recorded as 6473%; in assay [1] (Ang II 10^−8 M), 63-75%. In addition, the “increase in α-SMA expression” value in assay [5] is listed as 25-35%.
